Legend:
Format in all cases: biochemical
[1] = target: T1, human fibroblasts derived MMP-1 (type I collagenase) (Homo sapiens, UniProt P03956); assay: MMP-1 (type I collagenase) inhibitory activities, fluorogenic substrate enzyme assay; conditions: for IC50: 37° C., 4 h, substrate 10 μM; for inhibition at 10 µM: at 10^−5M, NE means no effect, read-out: MMP-1 inhibition percent
T1 construct: human fibroblasts derived MMP-1 (Yagai Co. Ltd.) as enzyme; purchased Yagai Co. Ltd; host or cells: human fibroblasts
T1 sequence (P03956 100-469): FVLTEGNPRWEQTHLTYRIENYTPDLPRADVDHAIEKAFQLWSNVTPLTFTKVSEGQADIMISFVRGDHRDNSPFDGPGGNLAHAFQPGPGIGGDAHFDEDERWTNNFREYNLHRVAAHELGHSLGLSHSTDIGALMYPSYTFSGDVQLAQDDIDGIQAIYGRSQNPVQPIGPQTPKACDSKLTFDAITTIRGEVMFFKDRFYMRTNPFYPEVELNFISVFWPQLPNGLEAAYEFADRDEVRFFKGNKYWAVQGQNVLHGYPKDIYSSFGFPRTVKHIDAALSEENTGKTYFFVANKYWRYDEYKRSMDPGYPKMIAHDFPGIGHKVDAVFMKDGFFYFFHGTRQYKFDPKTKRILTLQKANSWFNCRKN
Protocol: Examination 1: MMP-1 (type I collagenase) inhibitory activities.
Inhibitory activities of MMP-1 (type I collagenase) activities were estimated by enzyme assay using human fibroblasts derived MMP-1 (Yagai Co. Ltd.) as enzyme, and MOCAc-Pro-Leu-Gly-Leu-A2pr(Dnp)-Ala-Arg-NH2 (Peptide Research Center, 3163-v) as substrate. Thus, MMP-1 (0.01 U/ml), test compound (10^−10˜10^−5 M), and the substrate (10 μM) were incubated in 50 mM Tris-HCl buffer (pH 7.4) containing 0.2M NaCl, 10 mM CaCl2, 0.02% NaN3, and 0.05% Brij 35 at 37° C. for 4 h. The reaction was stopped by adding of 4 volumes of sodium acetate buffer (pH 4.0), and the degradation of substrate was calculated by measurement with a fluorescence intensity (λ ex 328 nm, λ em 393 nm). Inhibition of degradation of substrate in the presence of compound was determined by comparison with the degradation percent of substrate in the absence of compound, and concentration of 50% inhibition (IC50 value) was calculated.

MMP-2 (gelatinase A) = target: T2, MMP-2 (gelatinase A) (Homo sapiens, UniProt P08253); assay: MMP-2 (gelatinase A) inhibitory activities, fluorogenic substrate enzyme assay; conditions: 42° C., 2 h, substrate 10 μM
T2 construct: made in house; host or cells: COS-1 cells (secreted into culture medium)
T2 sequence (P08253 110-660): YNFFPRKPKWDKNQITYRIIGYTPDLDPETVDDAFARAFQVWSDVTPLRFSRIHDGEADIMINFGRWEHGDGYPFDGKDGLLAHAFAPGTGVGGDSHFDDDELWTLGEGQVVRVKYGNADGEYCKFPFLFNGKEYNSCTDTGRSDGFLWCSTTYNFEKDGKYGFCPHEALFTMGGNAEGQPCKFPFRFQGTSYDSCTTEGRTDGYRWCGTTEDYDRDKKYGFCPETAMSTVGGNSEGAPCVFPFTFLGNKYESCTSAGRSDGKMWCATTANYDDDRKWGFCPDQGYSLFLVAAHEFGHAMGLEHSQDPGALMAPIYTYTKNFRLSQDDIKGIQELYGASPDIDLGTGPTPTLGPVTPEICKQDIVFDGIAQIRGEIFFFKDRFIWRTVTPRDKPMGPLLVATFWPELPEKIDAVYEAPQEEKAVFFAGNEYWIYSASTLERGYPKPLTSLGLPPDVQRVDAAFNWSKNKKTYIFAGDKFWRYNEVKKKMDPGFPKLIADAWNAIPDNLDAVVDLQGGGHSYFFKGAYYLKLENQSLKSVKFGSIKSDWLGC
Protocol: (§1) Examination 2: MMP-2 (gelatinase A) and MMP-9 (gelatinase B) inhibitory activities.
(§2) Pro MMP-2 was obtained from culture medium separated from human pro-MMP-2 cDNA tranfected COS-1 cells. Pro MMP-2 activated by 1 mM (4-aminophenyl) mercury acetic acid and MMP-9, derived human fibrosarcome (Yagai Co. Ltd.), were used as enzyme respectively. Inhibition of both enzyme activities were estimated by enzyme assay using MOCAc-Pro-Leu-Gly-Leu-A2pr(Dnp)-Ala-Arg-NH2 (Peptide Research Center, 3163-v) as substrate. Thus, MMP-2 or MMP-9 (0.01 U/ml), test compound (several concentrations), and the substrate (10 μM) were incubated in 50 mM Tris - HCl buffer (pH 7.4) containing 0.2M NaCl, 10 mM CaCl2, 0.02% NaN3, and 0.05% Brij 35 at 42° C. for 2 h (MMP-2), 3 h (MMP-9) respectively. Inhibition of degradation of substrate in the presence of compound was determined by comparison with the degradation of substrate in the absence of compound, and concentration of 50% inhibition (IC50 value) was calculated.

MMP-9 (gelatinase B) = target: T3, MMP-9 (gelatinase B) (Homo sapiens, UniProt P14780); assay: MMP-9 (gelatinase B) inhibitory activities, fluorogenic substrate enzyme assay; conditions: for IC50: 42° C., 3 h, substrate 10 μM
T3 construct: MMP-9, derived human fibrosarcome (Yagai Co. Ltd.), were used as enzyme respectively; purchased Yagai Co. Ltd; host or cells: human fibrosarcoma
T3 sequence (P14780 94-707): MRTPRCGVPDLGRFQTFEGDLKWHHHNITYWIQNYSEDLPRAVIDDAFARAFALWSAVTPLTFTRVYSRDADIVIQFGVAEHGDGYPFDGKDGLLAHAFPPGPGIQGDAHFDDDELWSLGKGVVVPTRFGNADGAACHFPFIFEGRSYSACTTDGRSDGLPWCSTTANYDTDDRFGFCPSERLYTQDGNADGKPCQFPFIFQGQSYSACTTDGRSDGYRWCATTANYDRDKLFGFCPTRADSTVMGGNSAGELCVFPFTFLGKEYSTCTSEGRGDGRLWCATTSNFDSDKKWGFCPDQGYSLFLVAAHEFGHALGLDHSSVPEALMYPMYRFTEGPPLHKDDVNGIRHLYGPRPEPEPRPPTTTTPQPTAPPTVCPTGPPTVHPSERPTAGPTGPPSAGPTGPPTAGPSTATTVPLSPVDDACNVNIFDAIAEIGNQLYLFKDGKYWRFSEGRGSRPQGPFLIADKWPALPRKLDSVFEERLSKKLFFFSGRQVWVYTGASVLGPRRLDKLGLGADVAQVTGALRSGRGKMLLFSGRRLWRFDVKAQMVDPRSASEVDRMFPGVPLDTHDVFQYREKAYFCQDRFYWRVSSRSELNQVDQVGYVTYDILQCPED
Protocol: as §1, §2

Δ MT1-MMP (Δ MMP-14) = target: T4, Δ MT1-MMP (Δ MMP-14) (Homo sapiens, UniProt P50281); assay: Δ MT1-MMP (Δ MMP-14) inhibitory activities, fluorogenic substrate enzyme assay; conditions: 37° C., 30 min, substrate 10 μM; read-out: ΔMMP-14 IC50
T4 construct: ProMT1-MMP cDNA encoded extracellular domain of pro Δ MT1-MMP was tranfected E. coli BL21DE3; made in house; host or cells: E. coli BL21DE3 (inclusion bodies, 8M urea, ion exchange)
Excerpt: Examination 3: Δ MT1-MMP (Δ MMP-14) inhibitory activities.
ProMT1-MMP cDNA encoded extracellular domain of pro Δ MT1-MMP was tranfected E. coli BL21DE3, pro Δ MT1-MMP collected as inclusion body was solved using 8M urea, and it was pulified by ion exchenge column chlomatography. Inhibition of enzyme activities were estimated by enzyme assay using activated Δ MT1-MMP, obtained from activation of pro Δ MT1-MMP by 10 μ/ml tripsine, and MOCAc-Pro-Leu-Gly-Leu-A2pr(Dnp)-Ala-Arg-NH2 (Peptide Research Center, 3163-v) as substrate. Thus, Δ MT1-MMP, test compound (several concentrations), and the substrate (10 μM) were incubated in 50 mM Tris - HCl buffer (pH 7.4) containing 0.2M NaCl, 10 mM CaCl2, 0.02% NaN3, 0.05% Brij 35, and 10 μM leuipeputine at 37° C. for 30 min. The reaction was stopped by adding of 4 volumes of sodium acetate buffer (pH 4.0), and the degradation of substrate was calculated by measurement with a fluorescence intensity (λ ex 328 nm, λ em 393 nm). Inhibition of degradation of substrate in the presence of compound was determined by comparison with the degradation of substrate in the absence of compound, and concentration of 50% inhibition (IC50 value) was calculated.

SMILES	IC50 [1] [nM]	IC50 (MMP-2 (gelatinase A)) [nM]	IC50 (MMP-9 (gelatinase B)) [nM]	IC50 (Δ MT1-MMP (Δ MMP-14)) [nM]	inhibition at 10 µM [1] [%]	inhibition at 10 µM (MMP-9 (gelatinase B); at 10^−5M, read-out: MMP-9 inhibition percent) [%]
COc1ccc(-c2ccc(S(=O)(=O)N3CC[C@@H](NC(=O)CCC(C)C)C[C@@H]3C(=O)NO)cc2)cc1 [Compound 49, (2R, 4R)-2-Hydroxyaminocarbonyl-1-[4-(4-methoxyphenyl)benzenesulfonyl]-4-(4-methylpentanoylamino)-piperidine]	2600	0.25	0.26	130	–	–
COc1ccc(CN[C@@H]2CCN(S(=O)(=O)c3ccc(-c4ccc(OC)cc4)cc3)[C@@H](C(=O)NO)C2)cc1 [Compound 62, (2R, 4R)-2-Hydroxyaminocarbonyl-4-(4-methoxybenzylamino)-1-[4-(4-methoxyphenyl)benzenesulfonyl]-piperidine]	870	0.93	3.2	45	–	–
COc1ccc(-c2ccc(S(=O)(=O)N3CC[C@H](NC(C)=O)C[C@@H]3C(=O)NO)cc2)cc1 [Compound 82, (2R, 4S)-4-Acetylamino-2-hydroxyaminocarbonyl-1-[4-(4-methoxyphenyl)benzenesulfonyl]-piperidine]	–	740	440	1300	0	–
COc1ccc(-c2cccc(S(=O)(=O)N3CC[C@@H](NC(=O)CCC(C)C)C[C@@H]3C(=O)NO)c2)cc1 [Compound 52, (2R, 4R)-2-Hydroxyaminocarbonyl-1-[3-(4-methoxyphenyl)benzenesulfonyl]-4-(4-methylpentanoylamino)-piperidine]	–	210	420	79	48.9	–
COc1ccc(C(=O)N[C@@H]2CCN(S(=O)(=O)c3cccs3)[C@@H](C(=O)NO)C2)cc1 [Compound 50, (2R, 4R)-2-Hydroxyaminocarbonyl-4-(4-methoxybenzoylamino)-1-(2-thiophenesulfonyl)-piperidine]	8400	73	44	35	–	–
CC(C)CCC(=O)N[C@@H]1CCN(S(=O)(=O)c2ccc(O)cc2)[C@@H](C(=O)NO)C1 [Compound 63]	510	28	31	17	–	–
CC(C)CCC(=O)N[C@@H]1CCN(S(=O)(=O)c2cccs2)[C@@H](C(=O)NO)C1 [Compound 51, (2R, 4R)-2-Hydroxyaminocarbonyl-4-(4-methylpentanoylamino)-1-(2-thiophenesulfonyl)-piperidine]	6.5	80	75	31	–	–

Further lines, results first:

IC50 [1] [nM]	IC50 (MMP-2 (gelatinase A)) [nM]	IC50 (MMP-9 (gelatinase B)) [nM]	IC50 (Δ MT1-MMP (Δ MMP-14)) [nM]	inhibition at 10 µM [1] [%]	inhibition at 10 µM (MMP-9 (gelatinase B); at 10^−5M, read-out: MMP-9 inhibition percent) [%]	SMILES
640	19	3.4	290	–	–	CC(C)CCC(=O)N[C@@H]1CCN(S(=O)(=O)c2ccc(-c3ccc(Cl)cc3)cc2)[C@@H](C(=O)NO)C1 [Compound 71, (2R, 4R)-1-[4-(4-Chlorohenyl)benzenesulfonyl]-2-hydroxyaminocarbonyl-4-(4-methylpentanoylamino)-piperidine]
–	7600	–	5000	0	23.3	COc1ccc(S(=O)(=O)N2CC[C@H](NC(=O)CCC(C)C)C[C@H]2C(=O)NO)cc1 [Compound 79, (2S, 4S)-2-Hydroxyaminocarbonyl-1-(4-methoxybenzenesulfonyl)-4-(4-methylpentanoylamino)-piperidine]
–	28	200	7000	14	–	O=C(N[C@@H]1CCN(S(=O)(=O)c2ccc(-c3ccc(Cl)cc3)cc2)[C@@H](C(=O)O)C1)c1cccc[n+]1[O-] [Compound 89, (2R, 4R)-2-Carboxy-1-[4-(4-chlorophenyl)benzenesulfonyl]-4-(pyridyl-N-oxide-2-yl) carbonylamino-piperidine]
–	500	450	300	31.1	–	COc1ccc(OCCCCC(=O)N[C@H]2CCN(S(=O)(=O)c3ccc(OC)cc3)[C@H](C(=O)NO)C2)cc1 [Compound 78, (2S, 4S)-2-Hydroxyaminocarbonyl-1-(4-methoxybenzenesulfonyl)-4-[5-(4-methoxyphenoxy)pentanoylamino]-piperidine]
650	0.91	0.72	8.9	–	–	COc1ccc(-c2ccc(S(=O)(=O)N3CC[C@@H](NC(C)=O)C[C@@H]3C(=O)NO)cc2)cc1 [Compound 64, (2R, 4R)-4-Acetylamino-2-hydroxyaminocarbonyl-1-[4-(4-methoxyphenyl)benzenesulfonyl]-piperidine]
–	5.2	13	74	48.9	–	O=C(N[C@@H]1CCN(S(=O)(=O)c2ccc(-c3ccc(Cl)cc3)cc2)[C@@H](C(=O)NO)C1)c1ccccn1 [Compound 74, (2R, 4R)-1-[4-(4-Chlorophenyl)benzenesulfonyl]-2-hydroxyaminocarbonyl-4-(2-pyridinecarbonylamino)-piperidine]
870	4.8	51	23	–	–	CC(=O)N[C@@H]1CCN(S(=O)(=O)c2ccc(-c3ccc(O)cc3)cc2)[C@@H](C(=O)NO)C1 [Compound 65, (2R, 4R)-4-Acetylamino-2-hydroxyaminocarbonyl-1-[4-(4-hydroxyphenyl)benzenesulfonyl]-piperidine]

Source: patent publication US20010056184A1, “Pipecolinic acid derivatives, method of manufacturing the same and therapeutic agents containing these compounds” (priority 2000, published 2001)
